# Experimental data taken from US7507421B2, “Hydroxycitric acid salt composition and method of making” (Unibar Corporation, priority 2002, dated 2009).
# How the values were obtained:
# [1] = Accelerated storage study of aqueous solution; format: physicochemical; settings: 5 g in 100 ml de-ionized sterile water, accelerated storage study chamber, 2 months
# Description: 50 g equivalent of the hydroxy citric acid—potassium salt solution from Example 2 was taken into a glass beaker fitted with a stirring arrangement. To this solution, 43 g of the dried calcium salt from Example 1 was added and the mixture was stirred to yield a clear solution. The resultant solution was spray dried to yield a salt of hydroxycitric acid with the following analysis: potassium content 11% to 18%, calcium content 5% to 12%, structural moisture 3% to 5% and hydroxycitric acid content 70% to 76%. The sodium content was less than 0.5% and lactone less than 0.5%. The combined salt has a solubility of 5 g in 100 mL of deionized water at room temperature. This salt composition is tasteless and white in color. A solution of 5 g in 100 ml of de-ionized sterile water was subjected to an accelerated storage study chamber for 2 months.
# [2] = Solubility in water; format: physicochemical; settings: deionized water at room temperature
# Description: The resultant solution was spray dried to yield a salt of hydroxycitric acid with the following analysis: potassium content 11% to 18%, calcium content 5% to 12%, structural moisture 3% to 5% and hydroxycitric acid content 70% to 76%. The sodium content was less than 0.5% and lactone less than 0.5%. […] This salt composition is tasteless and white in color. A solution of 5 g in 100 ml of de-ionized sterile water was subjected to an accelerated storage study chamber for 2 months.
# [3] = system: adult female Wistar rats; test: Acute Oral Toxicity (OECD Test Guideline 425), LD50; format: in vivo; design: key: X = Died; ◯ = Survived; settings: dose 2000 mg/kg, single animal
# [4] = system: adult female Wistar rats; test: as above; format: in vivo; design: key to Short-term Result / Long-term Result: X = Died; ◯ = Survived; settings: for LD50: oral, female Wistar rats
# Description: A representative lot of powder obtained as described above is a pure, stable calcium potassium salt of hydroxycitric acid having a proximate analysis of 70 to 75% hydroxycitric acid, 7.5% to 9.5% calcium, 12 to 15% potassium and 3 to 5% structural moisture. The sodium content is less than 0.5%, and HCA lactone content is less than 0.5%. An animal toxicity study was conducted on the product to establish its LD50.
# Doses were selected in accordance with the Acute Oral Toxicity (OECD Test Guideline 425) Statistical Program as follows: 175, 550, 1750, 5000 mg/kg of body weight in adult female Wistar rats.
# [5] = dose 5000 mg/kg, one line per animal
substance,measurement,setting,value
Combined Potassium-Calcium Salts of Hydroxycitric Acid [Example 3],clarity of solution after storage,[1],retained its clarity
same,precipitation of salt after storage of solution,[1],did not precipitate out
same,solubility,[2],5 g in 100 mL
same,Long-term Result,[3],◯
same,Short-term Result,[3],◯
same,"Died (long-term, number of animals)","[4]; All Doses, total 6",0
same,"Survived (long-term, number of animals)","[4]; All Doses, total 6",6
same,Long-term Result,"[4]; dose 175 mg/kg, single animal",◯
same,Short-term Result,"[4]; dose 175 mg/kg, single animal",◯
same,"Died (long-term, number of animals)","[4]; dose 175 mg/kg, total 1",0
same,"Survived (long-term, number of animals)","[4]; dose 175 mg/kg, total 1",1
same,Long-term Result,"[4]; dose 550 mg/kg, single animal",◯
same,Short-term Result,"[4]; dose 550 mg/kg, single animal",◯
same,"Died (long-term, number of animals)","[4]; dose 550 mg/kg, total 1",0
same,"Survived (long-term, number of animals)","[4]; dose 550 mg/kg, total 1",1
same,"Died (long-term, number of animals)","[4]; dose 2000 mg/kg, total 1",0
same,"Survived (long-term, number of animals)","[4]; dose 2000 mg/kg, total 1",1
same,Long-term Result,[4]; [5],◯
same,Short-term Result,[4]; [5],◯
same,"Died (long-term, number of animals)","[4]; dose 5000 mg/kg, total 3",0
same,"Survived (long-term, number of animals)","[4]; dose 5000 mg/kg, total 3",3
same,LD50,[4],more than 5 gm/kg
same,LD50,[4]; conclusion of Table 8,Conclusion: LD50 of a sample of the Test Compound was found to be greater than 5000 mg/kg.
